From PubChem BioAssay AID1918931 (Molecular Pharmacology Branch, DTP, NCI, 2023)

System: 138582-337-R-J1-PDC complex spheroid viability
Test: Anticancer human tumor 138582-337-R-J1-PDC patient-derived Merkel cell tumor cell line growth inhibition
Conditions: for IC50: curve of first compound; for viability, T/C: stronger effect = lower value
Text: Multicellular complex tumor spheroid response to LSD1 Inhibitor Iadademstat in combination with a variety of drugs and investigational agents in selected tumor cell lines
The current study was undertaken to assess response to LSD1 inhibitors in combination with standard-of-care drugs and investigational agents in solid tumor complex spheroid models as well as in the K-562 leukemia. Complex spheroids include a stromal component modeled by human endothelial cells (HUVEC) and fibroblasts modeled by human mesenchymal stem cells (MSCs). The concentration ranges selected for each drug and investigational agent were based upon clinically achievable concentrations if the clinical Cmax of the agent was known.
Compounds. The drugs and investigational agents used in this study are listed on Table 1. All of the agents used, including staurosporine (NSC755774) and gemcitabine (NSC613327), were obtained from the Developmental Therapeutics Program, NCI. FDA-approved anticancer drugs are available from the NCI at http://dtp.nci.nih.gov/branches/dscb/oncology_drugset_explanation.html. Drugs and investigational agents were >95% pure by proton nuclear magnetic resonance (NMR) and liquid chromatography/mass spectrometry (LC/MS). Stock solutions were prepared at 400x in DMSO, stored at -70 degrees C, and diluted in fresh medium prior to their use. The final concentration of DMSO in cell culture wells never exceeded 0.25% (v/v). The FDA-approved anticancer drug set is available from the Developmental Therapeutics Program at https://dtp.cancer.gov/organization/dscb/obtaining/available_plates.htm. All drugs and investigational agents were tested over a range starting from a high concentration at or near the clinical Cmax and decreasing in half-log increments. If the clinical Cmax for an agent had not been determined, the highest concentration tested was 10 microM.
Cell Lines. The patient-derived cancer cell (PDC) lines: 292921-168-R-J2-PDC, K24384-001-R-PDC, and 521955-158-R2-J5-PDC pancreatic carcinomas, 556581-035-R-J1 ovarian carcinoma, 324938-238-R-J1-PDC, 855422-203-R-J1-PDC and 883617-216-R-J1-PDC urothelial bladder carcinomas, 743489-274-T-PDC renal cell carcinoma, 138582-R-J1 Merkel cell tumor, K60290-347-R-J1 and K57222-313-R-J1-PDC glioblastomas, 653999-131-R-J2-PDC, LG0703-F948-PDC, and 349418-098-R-PDC non-small cell lung carcinomas, 885512-296-R-J2-PDC, 171881-019-R-J1-PDC breast carcinomas and 186277-243-T-J2-PDC and 233499-124-R-J2-PDC colon carcinomas were obtained from the NCI Patient-Derived Models Repository (PDMR, https://pdmr.cancer.gov). The established cell lines NCI/ADR-RES (RRID:CVCL_14520 and OVCAR-5 (RRID:CVCL_1628) ovarian carcinomas, 786-O (RRID:CVCL_1051) and A498 (RRID:CVCL_A498) renal cell carcinoma, NCI-H211 (ATCC, cat. CRL-5824; RRID:CVCL_1529), NCI-H196 (ATCC, cat. CRL-5823, RRID:CVCL_1509), SW 1271 (ATCC, cat. CRL-2177, RRID:CVCL_1716) and NCI-H1876 (ATCC, cat. CRL-5902, RRID:CVCL_1503) small cell lung carcinomas, MDA-MB-231 (RRID:CVCL_0062) and MDA-MB-468 (RRID:CVCL_0419)breast carcinomas (10-12). Pooled donor human umbilical vein endothelial cells (HUVEC, Lonza, cat. CC-2519) and human mesenchymal stem cells (hMSC, Lonza, cat. PT-2501) were purchased from Lonza (Walkersville, MD).
Cell Culture. All cells were maintained in an incubator at 37 degrees C and 5% CO2 with 95% humidity. The PDC lines were cultured according to standard operating procedures established by the NCI PDMR (https://pdmr.cancer.gov). Briefly all PDCs were thawed and cultured in Matrigel-coated flasks prepared with a working solution of 1X Ham's F-12 nutrient mix, without supplementation (Invitrogen, Waltham, MA, cat. 11765054), 100 U/mL penicillin-streptomycin (Invitrogen, cat. 15140122), and 2.5% Matrigel (Corning Inc., Corning, NY, cat. 354248) for the first three passages. […]

[1] = second compound 0.1 µM, first compound 0.000316 µM
[2] = second compound 0.1 µM, first compound 0.001 µM
[3] = second compound 0.1 µM, first compound 0.00316 µM
[4] = second compound 0.1 µM, first compound 0.01 µM
[5] = second compound 0.1 µM, first compound 0.0316 µM
[6] = second compound 0.1 µM, first compound 0.1 µM
[7] = second compound 0.316 µM, first compound 0.000316 µM
[8] = second compound 0.316 µM, first compound 0.001 µM
[9] = second compound 0.316 µM, first compound 0.00316 µM
[10] = second compound 0.316 µM, first compound 0.01 µM
[11] = second compound 0.316 µM, first compound 0.0316 µM
[12] = second compound 0.316 µM, first compound 0.1 µM
[13] = second compound 1 µM, first compound 0.000316 µM
[14] = second compound 1 µM, first compound 0.001 µM
[15] = second compound 1 µM, first compound 0.00316 µM
[16] = second compound 1 µM, first compound 0.01 µM
[17] = second compound 1 µM, first compound 0.0316 µM
[18] = second compound 1 µM, first compound 0.1 µM
[19] = second compound 3.16 µM, first compound 0.000316 µM
[20] = second compound 3.16 µM, first compound 0.001 µM
[21] = second compound 3.16 µM, first compound 0.00316 µM
[22] = second compound 3.16 µM, first compound 0.01 µM
[23] = second compound 3.16 µM, first compound 0.0316 µM
[24] = second compound 3.16 µM, first compound 0.1 µM
[25] = second compound 10 µM, first compound 0.000316 µM
[26] = second compound 10 µM, first compound 0.001 µM
[27] = second compound 10 µM, first compound 0.00316 µM
[28] = second compound 10 µM, first compound 0.01 µM
[29] = second compound 10 µM, first compound 0.0316 µM
[30] = second compound 10 µM, first compound 0.1 µM
[31] = second compound 0.1 µM, first compound 0.00949 µM
[32] = second compound 0.1 µM, first compound 0.03 µM
[33] = second compound 0.1 µM, first compound 0.0949 µM
[34] = second compound 0.1 µM, first compound 0.3 µM
[35] = second compound 0.1 µM, first compound 0.949 µM
[36] = second compound 0.1 µM, first compound 3 µM
[37] = second compound 0.316 µM, first compound 0.00949 µM
[38] = second compound 0.316 µM, first compound 0.03 µM
[39] = second compound 0.316 µM, first compound 0.0949 µM
[40] = second compound 0.316 µM, first compound 0.3 µM
[41] = second compound 0.316 µM, first compound 0.949 µM
[42] = second compound 0.316 µM, first compound 3 µM
[43] = second compound 1 µM, first compound 0.00949 µM
[44] = second compound 1 µM, first compound 0.03 µM
[45] = second compound 1 µM, first compound 0.0949 µM
[46] = second compound 1 µM, first compound 0.3 µM
[47] = second compound 1 µM, first compound 0.949 µM
[48] = second compound 1 µM, first compound 3 µM
[49] = second compound 3.16 µM, first compound 0.00949 µM
[50] = second compound 3.16 µM, first compound 0.03 µM
[51] = second compound 3.16 µM, first compound 0.0949 µM
[52] = second compound 3.16 µM, first compound 0.3 µM
[53] = second compound 3.16 µM, first compound 0.949 µM
[54] = second compound 3.16 µM, first compound 3 µM
[55] = second compound 10 µM, first compound 0.00949 µM
[56] = second compound 10 µM, first compound 0.03 µM
[57] = second compound 10 µM, first compound 0.0949 µM
[58] = second compound 10 µM, first compound 0.3 µM
[59] = second compound 10 µM, first compound 0.949 µM
[60] = second compound 10 µM, first compound 3 µM
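Note: spheroids exposed to agents for 7 days.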
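Throughout, for viability, T/C: 100% = DMSO vehicle control viability.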

CC(C)CC(NC(=O)C(Cc1ccccc1)NC(=O)c1cnccn1)B(O)O (stereo not given) + NC1CC1c1ccc(-c2cccc(O)c2)cc1
IC50 (second compound 0.1 µM): 0.511 nM
IC50 (second compound 0.316 µM): 0.476 nM
IC50 (second compound 1 µM): 0.422 nM
IC50 (second compound 3.16 µM): 0.37 nM
IC50 (second compound 10 µM): 0.406 nM
viability, T/C [1]: 85.2%
viability, T/C [2]: 0.72%
viability, T/C [3]: 0.11%
viability, T/C [4]: 0.11%
viability, T/C [5]: 0.08%
viability, T/C [6]: 0.28%
viability, T/C [7]: 77%
viability, T/C [8]: 0.78%
viability, T/C [9]: 1.61%
viability, T/C [10]: 0.94%
viability, T/C [11]: 0.07%
viability, T/C [12]: 0.15%
viability, T/C [13]: 66%
viability, T/C [14]: 2.41%
viability, T/C [15]: 0.13%
viability, T/C [16]: 0.11%
viability, T/C [17]: 0.07%
viability, T/C [18]: 0.18%
viability, T/C [19]: 57.5%
viability, T/C [20]: 2.76%
viability, T/C [21]: 0.12%
viability, T/C [22]: 0.32%
viability, T/C [23]: 0.11%
viability, T/C [24]: 0.17%
viability, T/C [25]: 62.5%
viability, T/C [26]: 4.98%
viability, T/C [27]: 1.52%
viability, T/C [28]: 1.12%
viability, T/C [29]: 1.32%
viability, T/C [30]: 0.55%

CC(C)CC(NC(=O)CNC(=O)c1cc(Cl)ccc1Cl)B1OC(=O)CC(CC(=O)O)(C(=O)O)O1 (stereo not given) + NC1CC1c1ccc(-c2cccc(O)c2)cc1
IC50 (second compound 0.1 µM): 11.8 nM
IC50 (second compound 0.316 µM): 8.59 nM
IC50 (second compound 1 µM): 8.37 nM
IC50 (second compound 3.16 µM): 10.1 nM
IC50 (second compound 10 µM): 9.49 nM
viability, T/C [1]: 94.3%
viability, T/C [2]: 98.9%
viability, T/C [3]: 101%
viability, T/C [4]: 58.3%
viability, T/C [5]: 1.47%
viability, T/C [6]: 0.24%
viability, T/C [7]: 80.7%
viability, T/C [8]: 95%
viability, T/C [9]: 115%
viability, T/C [10]: 42.8%
viability, T/C [11]: 4.55%
viability, T/C [12]: 0.6%
viability, T/C [13]: 92.5%
viability, T/C [14]: 112%
viability, T/C [15]: 140%
viability, T/C [16]: 38.1%
viability, T/C [17]: 2.09%
viability, T/C [18]: 0.29%
viability, T/C [19]: 113%
viability, T/C [20]: 104%
viability, T/C [21]: 126%
viability, T/C [22]: 50.3%
viability, T/C [23]: 2.37%
viability, T/C [24]: 0.26%
viability, T/C [25]: 110%
viability, T/C [26]: 139%
viability, T/C [27]: 129%
viability, T/C [28]: 46.3%
viability, T/C [29]: 0.57%
viability, T/C [30]: 0.27%

Nc1ccccc1NC(=O)c1ccc(CNC(=O)OCc2cccnc2)cc1 + NC1CC1c1ccc(-c2cccc(O)c2)cc1
IC50 (second compound 0.1 µM): 324 nM
IC50 (second compound 0.316 µM): 355 nM
IC50 (second compound 1 µM): 390 nM
IC50 (second compound 3.16 µM): 310 nM
IC50 (second compound 10 µM): 262 nM
viability, T/C [31]: 86.8%
viability, T/C [32]: 72.7%
viability, T/C [33]: 78.6%
viability, T/C [34]: 53%
viability, T/C [35]: 7.55%
viability, T/C [36]: 0.52%
viability, T/C [37]: 71.1%
viability, T/C [38]: 76.6%
viability, T/C [39]: 76.6%
viability, T/C [40]: 57.4%
viability, T/C [41]: 6.5%
viability, T/C [42]: 0.75%
viability, T/C [43]: 72.1%
viability, T/C [44]: 53%
viability, T/C [45]: 79.3%
viability, T/C [46]: 62.6%
viability, T/C [47]: 6.82%
viability, T/C [48]: 0.31%
viability, T/C [49]: 74.5%
viability, T/C [50]: 77%
viability, T/C [51]: 80.9%
viability, T/C [52]: 50.8%
viability, T/C [53]: 6.44%
viability, T/C [54]: 0.64%
viability, T/C [55]: 79.8%
viability, T/C [56]: 70.2%
viability, T/C [57]: 61.5%
viability, T/C [58]: 50.1%
viability, T/C [59]: 4.95%
viability, T/C [60]: 0.46%

O=C(C=Cc1cccc(S(=O)(=O)Nc2ccccc2)c1)NO + NC1CC1c1ccc(-c2cccc(O)c2)cc1
IC50 (second compound 0.1 µM): 90.7 nM
IC50 (second compound 0.316 µM): 74.9 nM
IC50 (second compound 1 µM): < 9.49 nM
IC50 (second compound 3.16 µM): 64.8 nM
IC50 (second compound 10 µM): 113 nM
viability, T/C [31]: 67.6%
viability, T/C [32]: 64.1%
viability, T/C [33]: 49.6%
viability, T/C [34]: 36.1%
viability, T/C [35]: 0.36%
viability, T/C [36]: 69.3%
viability, T/C [37]: 58%
viability, T/C [38]: 53.2%
viability, T/C [39]: 48.6%
viability, T/C [40]: 21.1%
viability, T/C [41]: 0.35%
viability, T/C [42]: 59.1%
viability, T/C [43]: 44.8%
viability, T/C [44]: 51%
viability, T/C [45]: 49.6%
viability, T/C [46]: 25%
viability, T/C [47]: 0.46%
viability, T/C [48]: 49.2%
viability, T/C [49]: 49.9%
viability, T/C [50]: 63.3%
viability, T/C [51]: 45.2%
viability, T/C [52]: 25.6%
viability, T/C [53]: 0.37%
viability, T/C [54]: 30.9%
viability, T/C [55]: 66.8%
viability, T/C [56]: 57.6%
viability, T/C [57]: 53.6%
viability, T/C [58]: 29.8%
viability, T/C [59]: 0.44%
viability, T/C [60]: 41.2%
